Patent publication US20190374563A1, “TREATMENT OF KLEBSIELLA PNEUMONIAE INFECTIONS WITH ANTIBACTERIAL AMINOGLYCOSIDE COMPOUNDS” (Achaogen, Inc., priority 2009, published 2019)
In brackets after ≈: the same amount, converted by molar mass.

Experiments:
[1] = test system: E. coli ATCC 25922 (susceptible); experiment: murine neutropenic thigh model; format: in vivo
Method: (§1) The in vivo activity of Example 1 in the mouse neutropenic thigh model (Andes and Craig. Antimicrob Agents Chemother. 2002, 46:1665-1670) was determined against seven bacterial strains including susceptible Escherichia coli and Klebsiella pneumoniae; multi-drug resistant (MDR) clinical isolates of E. coli and K. pneumoniae that display resistance to multiple antibiotics (including AGs); MRSA; and two K. pneumoniae carbapenemases (KPC)-expressing strains (see Table 5). For this efficacy model, groups of six CD-1 mice were rendered neutropenic by two intraperitoneal injections of cyclophosphamide. The first injection was 150 mg/kg three days prior to infection (day −4), and the second injection was 100 mg/kg one day prior to infection (day −1). On study day 0, animals were inoculated intramuscularly (0.1 ml) with a known number of colony forming units (CFU) of the specified bacterial strain (ATCC 25922, AECO 1003, ATCC 43816, AKPN 1073, AKPN 1109, ATCC 33591 or ASMA 1030), tailored to the virulence of each strain in the model to maximize bacterial load while avoiding mortality in the untreated control arms. Antibiotics were administered via subcutaneous injection at 2 and 14 hours after bacterial challenge. At 26 hours, infected thigh tissue was harvested, homogenized, and plated to count CFU. Untreated control animals were harvested at 2 hours post-infection to assess the initial bacterial load and at 26 hours post-infection to measure growth in the absence of antibiotic treatment.

[2] = test system: K. pneumoniae AKPN 1109 (KPC-expressing clinical isolate); experiment: murine neutropenic thigh model; format: in vivo; conditions: highest test dosage; AKPN 1109, challenge 8.3×10^5 CFU; FIG. 4
Method: as §1

[3] = test system: K. pneumoniae ATCC 43816 (susceptible); experiment: murine neutropenic thigh model; format: in vivo
Method: as §1

P. aeruginosa ATCC 27853 = experiment: murine septicemia model of infection; format: in vivo; conditions: mice, single SC or IV dose 1 hour after IP challenge, mortality for 7 days; ED50 values are mg/kg
Method: (§2) Two models were run on each compound, using E. coli and P. aeruginosa QC bacterial strains. Both studies employed the same design. […] At 1 hour after bacterial challenge, the mice received a single SC or IV dose of vehicle or test substance to assess in vivo anti-infective activity. Mortality was recorded once daily for 7 days after bacterial inoculation.

E. coli ATCC 25922 = experiment: murine septicemia model of infection; format: in vivo; conditions: mice, single SC or IV dose 1 hour after IP challenge, mortality for 7 days; ED50 values are mg/kg
Method: as §2

seven bacterial strains = experiment: murine neutropenic thigh model, statements over all strains; format: in vivo
Method: as §1

[4] = test system: K. pneumoniae producing KPC (n = 25); experiment: MIC by microdilution, clinical isolates; format: cell-based; conditions: Klebsiella pneumoniae, K. pneumoniae producing KPC (n = 25)
Method: (§3) The in vitro activity of representative antibacterial aminoglycoside compounds against a collection of 102 K. pneumoniae clinical isolates collected from January 2006 to October 2007 at the University of Pittsburgh Medical Center, and three Cleveland institutions including University Hospitals Case Medical Center, the Cleveland Clinic, and the Louis Stokes Department of Veterans Affairs Medical Center was analyzed. The 102 K. pneumoniae isolates were selected based on a multidrug-resistant (MDR) phenotype (i.e., resistance to >3 antibiotic classes). Twenty-five isolates were KPC carbapenemase producing (KPC-Kp), and were part of a previous study where the β-lactamase background and clonality were characterized (see Endimiani, A., A. M. Hujer, F. Perez, C. R. Bethel, K. M. Hujer, J. Kroeger, M. Oethinger, D. L. Paterson, M. D. Adams, M. R. Jacobs, D. J. Diekema, G. S. Hall, S. G. Jenkins, L. B. Rice, F. C. Tenover, and R. A. Bonomo. 2009. Characterization of blaKPC-containing Klebsiella pneumoniae isolates detected in different institutions in the Eastern USA. J Antimicrob Chemother 63:427-37).
(§4) Minimum inhibitory concentrations (MICs) were performed by microdilution method using cation-adjusted Mueller-Hinton broth, according to the Clinical and Laboratory Standards Institute (CLSI) criteria (see CLSI. 2006. Methods for dilution antimicrobial susceptibility tests for bacteria that grow aerobically; approved standard-Seventh edition. Clinical and Laboratory Standard Institute, Wayne, Pa. CLSI document M7-A7). These MIC assays were conducted following the same protocol as set forth in Example 110. […] The following ATCC control strains were used: Escherichia coli ATCC 25922, Pseudomonas aeruginosa ATCC 27853, and K. pneumoniae ATCC 700603.

[5] = test system: multidrug-resistant (MDR) K. pneumoniae isolates (n = 102); experiment: MIC by microdilution, clinical isolates; format: cell-based
Method: as §3, §4

[6] = test system: P. aeruginosa ATCC 27853 (APAE001); experiment: MIC assay, CLSI broth microdilution; format: cell-based; conditions: Pseudomonas aeruginosa; Table 1; APAE001 is ATCC27853; read-out: MIC APAE001
Outline: (§5)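 CLSI M7-A7 broth microdilution in Mueller Hinton Broth using two-fold compound serial dilutions. Inoculum was prepared from the previous day's agar colonies at a final 5×10^5 CFU/mL. Plates were incubated at 35° C for 20 hours in ambient air.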

[7] = test system: S. aureus ATCC 33591 (MRSA); experiment: murine neutropenic thigh model; format: in vivo; conditions: two highest dosages; MRSA ATCC 33591, challenge 1.2×10^3 CFU; FIG. 5
Method: as §1, with “Untreated control animals were harvested at 2 hours post-infection to assess the initial bacterial load and at 26 hours post-infection to measure growth in the absence of antibiotic treatment.” left out

[8] = test system: K. pneumoniae AKPN 1073 (MDR, AG-resistant clinical isolate); experiment: murine neutropenic thigh model; format: in vivo; conditions: two highest dosages; AKPN 1073, challenge 1.3×10^4 CFU; FIG. 3
Method: as §1, with “Untreated control animals were harvested at 2 hours post-infection to assess the initial bacterial load and at 26 hours post-infection to measure growth in the absence of antibiotic treatment.” left out

[9] = test system: E. coli AECO 1003 (MDR, AG-resistant clinical isolate); experiment: murine neutropenic thigh model; format: in vivo; conditions: highest dosage; AECO 1003, challenge 1.5×10^3 CFU; FIG. 2
Method: as §1, with “Untreated control animals were harvested at 2 hours post-infection to assess the initial bacterial load and at 26 hours post-infection to measure growth in the absence of antibiotic treatment.” left out

[10] = test system: E. coli AECO040, AAC(6′)-I; experiment: MIC assay, aminoglycoside resistant strain; format: cell-based; parameters: unit not given beside the values; conditions: Table 3; E. coli AAC(6′)-I
Method: (§6) Minimum inhibitory concentrations (MIC) were determined by reference Clinical and Laboratory Standards Institute (CLSI) broth microdilution methods per M7-A7 [2006]. Quality control ranges utilizing E. coli ATCC 25922, P. aeruginosa ATCC 27853 and S. aureus ATCC 29213, and interpretive criteria for comparator agents were as published in CLSI M100-S17 [2007]. Briefly, serial two-fold dilutions of the test compounds were prepared at 2× concentration in Mueller Hinton Broth. The compound dilutions were mixed in 96-well assay plates in a 1:1 ratio with bacterial inoculum. The inoculum was prepared by suspension of a colony from an agar plate that was prepared the previous day. Bacteria were suspended in sterile saline and added to each assay plate to obtain a final concentration of 5×10^5 CFU/mL. The plates were incubated at 35° C. for 20 hours in ambient air.
(§7) These MIC assays were conducted following the same protocol as set forth in Example 110. As shown, substituted sisomicin derivatives with groups other than methyl at the 6′-position have improved activity against strains expressing the AAC6′-modifying enzymes.

[11] = test system: A. calcoaceticus AACA005, AAC(6′)-I; experiment: MIC assay, aminoglycoside resistant strain; format: cell-based; parameters: unit not given beside the values; conditions: Table 3; A. calcoaceticus AAC(6′)-I
Method: as §6, §7

[12] = test system: E. coli ATCC 25922 (AECO001); experiment: MIC assay, CLSI broth microdilution; format: cell-based; parameters: MIC AECO001: unit not given here; conditions: Table 3; E. coli ATCC25922
Outline: as §5

SMILES	MIC AECO040 [10]	MIC AACA005 [11]	MIC AECO001 [12]	further results
CN[C@@H]1[C@@H](O)[C@@H](O[C@@H]2[C@@H](O)[C@H](O[C@H]3OC(CNCCO)=CC[C@H]3N)[C@@H](N)C[C@H]2NC(=O)[C@@H](O)CCN)OC[C@]1(C)O [Example 1, 6′-(2-Hydroxy-ethyl)-1-(4-amino-2(S)-hydroxy-butyryl)-sisomicin]	–	–	–	ED50/MIC [1]: 8.4; bacterial load after 24 hours of treatment versus initial bacterial load [2]: reduced back to the level of the initial bacterial load; ED50/MIC [3]: 7.4; ED50/MIC P. aeruginosa (P. aeruginosa ATCC 27853): 4; ED50/MIC E. Coli (E. coli ATCC 25922): <2; bacterial titers versus initial bacterial load (static level) (seven bacterial strains; all 7 strains): reducing bacterial titers back to or below the initial bacterial load; ED50 against gentamicin resistant strains (seven bacterial strains; gentamicin resistant strains): efficacious; ratio of in vivo efficacy to in vitro activity (ED50/MIC) (seven bacterial strains; in words): comparable to that of gentamicin; in vivo efficacy (ED50) against strains susceptible to gentamicin (seven bacterial strains; strains susceptible to gentamicin, in words): comparable to gentamicin; MIC50 ([4]; read-out: MIC50): 0.5 µg/mL (≈ 0.844 µM); MIC90 ([4]; read-out: MIC90): 1 µg/mL (≈ 1.69 µM); MIC50 ([5]; Klebsiella pneumoniae, Total MDR K. pneumoniae isolates (n = 102), read-out: MIC50): 0.5 µg/mL (≈ 0.844 µM); MIC90 ([5]; Klebsiella pneumoniae, Total MDR K. pneumoniae isolates (n = 102), read-out: MIC90): 1 µg/mL (≈ 1.69 µM); MIC ([5]; Klebsiella pneumoniae, all MDR and KPC-Kp strains, read-out: MICs for all strains): ≤ 4 µg/mL; MIC90 lower than that of amikacin ([5]; MDR and KPC-Kp strains): at least 5 twofold dilutions; MIC [6]: 1 to 16 µg/mL (≈ 1.69 to 27 µM); bacterial load after 24 hours of treatment versus initial bacterial load [7]: reduced to below the initial bacterial load; bacterial load after 24 hours of treatment versus initial bacterial load [8]: reduced to below the level of the initial bacterial load; bacterial titer after 24 hours of treatment versus initial bacterial load [9]: reduced to below the initial bacterial load
CN[C@@H]1[C@@H](O)[C@@H](O[C@@H]2C(O)[C@H](O[C@H]3OC(CNCC4CC4)=CC[C@H]3N)[C@@H](N)C[C@H]2N)OC[C@]1(C)O (stereo partly shown) [Mono-substituted Compound 2]	1	4	1	–
CN[C@@H]1[C@@H](O)[C@@H](O[C@@H]2C(O)[C@H](O[C@H]3OC(CNCC4CCNCC4)=CC[C@H]3N)[C@@H](N)C[C@H]2N)OC[C@]1(C)O (stereo partly shown) [Mono-substituted Compound 3]	0.25	0.5	0.5	–
CN[C@@H]1[C@@H](O)[C@@H](O[C@@H]2C(O)[C@H](O[C@H]3OC(CNCCCN)=CC[C@H]3N)[C@@H](N)C[C@H]2N)OC[C@]1(C)O (stereo partly shown) [Mono-substituted Compound 4]	16	1	2	–
CN[C@@H]1C(O)[C@@H](O[C@@H]2[C@@H](O)[C@H](OC3OC(CN)=CC[C@H]3N)[C@@H](N)C[C@H]2NC(=O)[C@@H](O)CN)OC[C@]1(C)O (stereo partly shown) [Mono-substituted Compound 5]	8	32	0.5	–
CN[C@@H]1C(O)[C@@H](O[C@@H]2[C@@H](O)[C@H](OC3OC(CN)=CC[C@H]3N)[C@@H](N)C[C@H]2NC(=O)[C@@H](O)CCN)OC[C@]1(C)O (stereo partly shown) [Mono-substituted Compound 6]	4	16	0.5	–
CN[C@@H]1C(O)[C@@H](O[C@@H]2[C@@H](O)[C@H](OC3OC(CN)=CC[C@H]3N)[C@@H](N)C[C@H]2NC(=O)C2(O)CNC2)OC[C@]1(C)O (stereo partly shown) [Mono-substituted Compound 7]	4	32	1	–
CN[C@@H]1[C@@H](O)[C@@H](O[C@@H]2[C@@H](O)[C@H](O[C@H]3OC(CN)=CC[C@H]3N)[C@@H](N)C[C@H]2N)OC[C@]1(C)O [Sisomicin]	32	32	0.5	–
